PubChem BioAssay AID248 (DTP/NCI, 2004)
Toxic doses and inconclusive results are not listed. No stated cut-off is given here; in the data, active means T/C of 150% or more; inactive means T/C below 125%. Peptide text beside a SMILES is read from it. * marks the point of attachment. Cbz = O=C(OCc1ccccc1)*

Test system: L1210 leukemia ip in BDF1 mice, survival T/C
Experiment: NCI In Vivo Anticancer Drug Screen. Data for tumor model L1210 Leukemia (intraperitoneal) in B6D2F1 (BDF1) mice
Conditions: endpoint: mean survival time, higher = longer survival
In short: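 Tumor was transplanted into mice, which were then dosed with test compound or vehicle alone. Survival was recorded for each group, and the treated figure was expressed relative to the control figure.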

[1] = dose: 100.0 mg/kg/injection, schedule: Q01DX001 (ip), vehicle: carboxymethylcellulose (CMC)
[2] = dose: 200.0 mg/kg/injection, schedule: Q01DX001 (ip), vehicle: carboxymethylcellulose (CMC)
[3] = dose: 400.0 mg/kg/injection, schedule: Q01DX001 (ip), vehicle: carboxymethylcellulose (CMC)
[4] = dose: 12.5 mg/kg/injection, schedule: Q04DX003 (ip), vehicle: saline with Tween-80
[5] = dose: 25.0 mg/kg/injection, schedule: Q04DX003 (ip), vehicle: saline with Tween-80
[6] = dose: 100.0 mg/kg/injection, schedule: Q01DX009 (ip), vehicle: Klucel (hydroxypropylcellulose) (HPC)
[7] = dose: 100.0 mg/kg/injection, schedule: Q04DX002 (ip), vehicle: Klucel (hydroxypropylcellulose) (HPC)
[8] = dose: 200.0 mg/kg/injection, schedule: Q01DX009 (ip), vehicle: Klucel (hydroxypropylcellulose) (HPC)
[9] = dose: 200.0 mg/kg/injection, schedule: Q04DX002 (ip), vehicle: Klucel (hydroxypropylcellulose) (HPC)
[10] = dose: 400.0 mg/kg/injection, schedule: Q01DX009 (ip), vehicle: Klucel (hydroxypropylcellulose) (HPC)
[11] = dose: 400.0 mg/kg/injection, schedule: Q04DX002 (ip), vehicle: Klucel (hydroxypropylcellulose) (HPC)
[12] = dose: 100.0 mg/kg/injection, schedule: Q04DX003 (ip), vehicle: Klucel (hydroxypropylcellulose) (HPC)
[13] = dose: 200.0 mg/kg/injection, schedule: Q04DX003 (ip), vehicle: Klucel (hydroxypropylcellulose) (HPC)
[14] = dose: 400.0 mg/kg/injection, schedule: Q04DX003 (ip), vehicle: Klucel (hydroxypropylcellulose) (HPC)
[15] = dose: 100.0 mg/kg/injection, schedule: Q01DX009 (ip), vehicle: saline
[16] = dose: 200.0 mg/kg/injection, schedule: Q01DX009 (ip), vehicle: saline
[17] = dose: 400.0 mg/kg/injection, schedule: Q01DX009 (ip), vehicle: saline

Measured: T/C

NC(=S)N/N=C/c1ccc([N+](=O)[O-])s1 (tested in a mixture with another compound)
inactive: [1] 92 % of control | [2] 97 % of control | [3] 94 % of control

Nc1ccccn1
inactive: dose: 12.5 mg/kg/injection, schedule: Q04DX002 (ip), vehicle: saline 100 % of control | dose: 25.0 mg/kg/injection, schedule: Q04DX002 (ip), vehicle: saline 89 % of control

CCCCCCC(C)CCCCCCCCNCCOC(=O)c1ccc(N)cc1 (centres undefined)
inactive: dose: 75.0 mg/kg/injection, schedule: Q01DX001 (ip), vehicle: saline 102 % of control | dose: 150.0 mg/kg/injection, schedule: Q01DX001 (ip), vehicle: saline 104 % of control

CCCCNCCC(SSSC(CCNCCCC)c1ccc(Cl)cc1)c1ccc(Cl)cc1 (centres undefined)
inactive: dose: 6.25 mg/kg/injection, schedule: Q04DX003 (ip), vehicle: saline with Tween-80 103 % of control | [4] 88 % of control | [5] 91 % of control

CC(C)(C)c1ccc(Oc2ccc([N+](=O)[O-])cc2[N+](=O)[O-])c(Br)c1
inactive: [6] 96 % of control | [7] 104 % of control | [8] 96 % of control | [9] 108 % of control | [10] 96 % of control | [11] 111 % of control

CC(NC1CCCCC1)C(=O)O (centres undefined)
inactive: dose: 12.5 mg/kg/injection, schedule: Q04DX002 (ip), vehicle: Klucel (hydroxypropylcellulose) (HPC) 93 % of control | dose: 25.0 mg/kg/injection, schedule: Q04DX002 (ip), vehicle: Klucel (hydroxypropylcellulose) (HPC) 96 % of control | dose: 50.0 mg/kg/injection, schedule: Q04DX002 (ip), vehicle: Klucel (hydroxypropylcellulose) (HPC) 89 % of control

Nc1ncnc2c1ncn2C1OC(C(=O)NCC(=O)O)C(O)C1O (centres undefined)
inactive: dose: 100.0 mg/kg/injection, schedule: Q01DX005 (ip), vehicle: saline 113 % of control | dose: 200.0 mg/kg/injection, schedule: Q01DX005 (ip), vehicle: saline 100 % of control | dose: 400.0 mg/kg/injection, schedule: Q01DX005 (ip), vehicle: saline 101 % of control

CN(C)c1ccc(/C=C/c2nc3ccc([N+](=O)[O-])cc3[nH]2)cc1
inactive: dose: 50.0 mg/kg/injection, schedule: Q01DX009 (ip), vehicle: Klucel (hydroxypropylcellulose) (HPC) 97 % of control | [6] 97 % of control | [12] 97 % of control | [8] 92 % of control | [13] 102 % of control | [10] 94 % of control | [14] 103 % of control

BrCc1c(CBr)c(CBr)c(CBr)c(CBr)c1CBr
inactive: [6] 98 % of control | [12] 94 % of control | [8] 97 % of control | [13] 96 % of control | [10] 97 % of control | [14] 96 % of control

CC1=C/C=C/C(C)C(O)C(C)C(O)C(C)C(O)C(C)C(O)C(C)CC=C(C)C(=O)c2c(O)c(C)cc3c2C(=O)C(C)=C(NC1=O)C3=O (centres undefined)
inactive: [12] 103 % of control | [13] 100 % of control | [14] 101 % of control

COC(=O)CNC(=O)CNC(=O)OCc1ccccc1 (Cbz-Gly-Gly-OMe)
inactive: [15] 102 % of control | dose: 100.0 mg/kg/injection, schedule: Q04DX003 (ip), vehicle: saline 102 % of control | [16] 100 % of control | dose: 200.0 mg/kg/injection, schedule: Q04DX003 (ip), vehicle: saline 98 % of control | [17] 102 % of control | dose: 400.0 mg/kg/injection, schedule: Q04DX003 (ip), vehicle: saline 107 % of control

CCCCNC(=O)C(C)S(=O)(=O)c1ccc(N)cc1 (centres undefined)
inactive: dose: 100.0 mg/kg/injection, schedule: Q04DX003 (ip), vehicle: saline with Tween-80 98 % of control | dose: 200.0 mg/kg/injection, schedule: Q04DX003 (ip), vehicle: saline with Tween-80 96 % of control | dose: 400.0 mg/kg/injection, schedule: Q04DX003 (ip), vehicle: saline with Tween-80 102 % of control

O=C(c1ccccc1)C1(c2ccccc2)OP(c2ccccc2)(c2ccccc2)(c2ccccc2)CC1c1ccccc1 (centres undefined)
inactive: [4] 90 % of control | [5] 92 % of control

CCOP(=O)(SCC)N(CC)CC (centres undefined)
inactive: dose: 5.0 mg/kg/injection, schedule: Q01DX001 (ip), vehicle: saline 108 % of control | dose: 10.0 mg/kg/injection, schedule: Q01DX001 (ip), vehicle: saline 104 % of control | dose: 20.0 mg/kg/injection, schedule: Q01DX001 (ip), vehicle: saline 104 % of control | dose: 40.0 mg/kg/injection, schedule: Q01DX001 (ip), vehicle: saline 115 % of control | dose: 80.0 mg/kg/injection, schedule: Q01DX001 (ip), vehicle: saline 106 % of control

CN(C)C(=S)SCCC(N)C(=O)O (centres undefined)
inactive: dose: 50.0 mg/kg/injection, schedule: Q01DX009 (ip), vehicle: saline with Tween-80 90 % of control | dose: 100.0 mg/kg/injection, schedule: Q01DX009 (ip), vehicle: saline with Tween-80 101 % of control | dose: 200.0 mg/kg/injection, schedule: Q01DX009 (ip), vehicle: saline with Tween-80 96 % of control

CC12CC(O)C3C(CCC4CC(O)CCC43C)C1CCC2C(=O)CO (centres undefined)
inactive: dose: 100.0 mg/kg/injection, schedule: Q01DX001 (sc), vehicle: steriod suspending solution 102 % of control | dose: 200.0 mg/kg/injection, schedule: Q01DX001 (sc), vehicle: steriod suspending solution 104 % of control | dose: 400.0 mg/kg/injection, schedule: Q01DX001 (sc), vehicle: steriod suspending solution 102 % of control

C/C=C/C[n+]1cccc2ccccc21
inactive: dose: 6.25 mg/kg/injection, schedule: Q01DX009 (ip), vehicle: saline 92 % of control | dose: 6.25 mg/kg/injection, schedule: Q04DX003 (ip), vehicle: saline 98 % of control | dose: 12.5 mg/kg/injection, schedule: Q01DX009 (ip), vehicle: saline 95 % of control | dose: 12.5 mg/kg/injection, schedule: Q04DX003 (ip), vehicle: saline 101 % of control | dose: 25.0 mg/kg/injection, schedule: Q01DX009 (ip), vehicle: saline 100 % of control | dose: 25.0 mg/kg/injection, schedule: Q04DX003 (ip), vehicle: saline 101 % of control

O=C1c2ccccc2C(=C/C=C/c2ccccc2)c2ccccc21
inactive: [12] 99 % of control | [13] 89 % of control | [14] 92 % of control

CC1CNC(=S)N1 (centres undefined)
inactive: [7] 106 % of control | [9] 103 % of control | [11] 106 % of control

COc1c(NC(=O)Nc2ccc(F)c([N+](=O)[O-])c2)cccc1[N+](=O)[O-]
inactive: [6] 93 % of control | [8] 101 % of control | [10] 97 % of control

c1ccc2c(c1)ccc1ccc(C3=NCCO3)cc12
inactive: dose: 100.0 mg/kg/injection, schedule: Q01DX001 (ip), vehicle: Klucel (hydroxypropylcellulose) (HPC) 94 % of control | dose: 200.0 mg/kg/injection, schedule: Q01DX001 (ip), vehicle: Klucel (hydroxypropylcellulose) (HPC) 100 % of control | dose: 400.0 mg/kg/injection, schedule: Q01DX001 (ip), vehicle: Klucel (hydroxypropylcellulose) (HPC) 100 % of control

O=C(Nc1ccc(S(=O)(=O)F)cc1)c1ccc(C(=O)Nc2ccc(S(=O)(=O)F)cc2)cc1
inactive: [1] 102 % of control | [2] 101 % of control | [3] 96 % of control

NC(=O)c1ccc[n+](Cc2ccccc2)c1
inactive: dose: 37.5 mg/kg/injection, schedule: Q04DX003 (ip), vehicle: saline 97 % of control | dose: 75.0 mg/kg/injection, schedule: Q04DX003 (ip), vehicle: saline 94 % of control | [15] 100 % of control | dose: 150.0 mg/kg/injection, schedule: Q04DX003 (ip), vehicle: saline 95 % of control | [16] 107 % of control

CCC(=O)c1cc(OC)cc(OC)c1
inactive: [15] 105 % of control | [16] 105 % of control | [17] 112 % of control
